Measurements published in patent publication US20250228762A1, “COSMETIC COMPOSITION COMPRISING LUTEIN AND A POLYSACCHARIDE” (ALGAKTIV, S.L., priority 2022, published 2025).

What was measured:
Format in all cases: cell-based
[1] = test system: RARbeta; assay: RAR beta agonist assay (SelectScreen GeneBLAzer, UAS-bla HEK 293T)
Procedure: (§1) An agonist assay for RAR was performed by SelectScreen® Cell-Based Nuclear Receptor Profiling Service of Life Technologies. In this assay, an engineered cell line (UAS-bla HEK 293T) expressing RARalpha, RARbeta or RAR gamma is used to test the action of lutein. GeneBLAzer® technology, based on mammalian-optimized Beta-lactamase reporter gene (bla) combined with a FRET-enabled substrate, provides the assay with a sensitive detection method. […] The plate is incubated for 16-24 hours at 37° C./5% CO2 in a humidified incubator. 8 μL of 1 μM Substrate Loading Solution is added to each well and the plate is incubated for 2 hours at room temperature. The plate is read on a fluorescence plate reader.

[2] = test system: RARalpha; assay: RAR alpha agonist assay (SelectScreen GeneBLAzer, UAS-bla HEK 293T)
Procedure: as §1

[3] = test system: RAR gamma; assay: RAR gamma agonist assay (SelectScreen GeneBLAzer, UAS-bla HEK 293T)
Procedure: as §1

[4] = at any concentration below 3.2 μM

SMILES	concentrations at which a specific RAR-beta partial agonist effect could be measured ([1]; RAR-beta-UAS-bla HEK 293T)	RAR-beta activation ([1]; at 3.16 μM) [%]	agonist effect on RAR alpha [2, 4]	agonist effect on RAR gamma [3, 4]	EC50 ([1]; RAR-beta-UAS-bla HEK 293T, FIG. 3, read-out: EC50 (control agonist, RAR beta)) [nM]	EC50 ([2]; RAR-alpha-UAS-bla HEK 293T, FIG. 2, read-out: EC50 (control agonist, RAR alpha)) [nM]	EC50 ([3]; RAR-gamma-UAS-bla HEK 293T, FIG. 4, read-out: EC50 (control agonist, RAR gamma)) [nM]
CC1=C[C@H](O)CC(C)(C)[C@H]1/C=C/C(C)=C/C=C/C(C)=C/C=C/C=C(C)/C=C/C=C(C)/C=C/C1=C(C)C[C@@H](O)CC1(C)C [Lutein, (1R,4R)-4-{(1E,3E,5E,7E,9E,11E,13E,15E,17E)-18-[(4R)-4-Hydroxy-2,6,6-trimethylcyclohex-1-en-1-yl]-3,7,12,16-tetramethyloctadeca-1,3,5,7,9,11,13,15,17-nonaen-1-yl}-3,5,5-trimethylcyclohex-2-en-1-ol]	above 100 nm	~40	No agonist effect	No agonist effect			
CC1=C(/C=C/C(C)=C/C=C/C(C)=C/C(=O)O)C(C)(C)CCC1 [ATRA, reference compound]					0.46	[…]	0.131
